{"source": "paper PMC8582824", "about": "“Targeting DDX3X Helicase Activity with BA103 Shows Promising Therapeutic Effects in Preclinical Glioblastoma Models” (Cancers, 2021)", "key": {"[1]": {"system": "U87 cells intracerebral xenograft", "experiment": "Orthotopic U87 xenograft model of GBM", "format": "in vivo, CD1 nude mice", "details": "50 mg/kg i.p., three times per week for three weeks, observed two months", "protocol": "In CD1 nude mice, 3 × 10^3 U87 cells were injecting intracerebrally using a stereotactic frame (Stoelting Europe, Dublin, Ireland). Optimization of the protocol for treatment procedures was based on previously published data performed in the same experimental in vivo model. A volume of 3 μL was inoculated by a sterile Hamilton syringe with a 26-gauge needle inserted at a depth of 3.0 mm from the skull surface. Five days after injection, animals were randomized to control and treated groups. […] For in vivo administration, BA103 was administered i.p. in a saline solution containing 10% v/v DMSO and 10% v/v TWEEN 80. Each mouse received 50 mg/kg BA103, or vehicle, three times per week.\nFigure 9 Biological activity of BA103 in xenograft models of GBM. (A–D) Mice were inoculated s.c. with U87 cells, randomly distributed in two groups (CTR and BA103), and treated according to the protocol shown in panel (A). Tumor growth was monitored by measuring tumor volume (B), and at the end point, tumors were weighed, and the resulting mean values for each group are reported in the histogram (C). Recovered tumor masses were processed for analysis of DDX3X expression by immunohistochemistry, and representative images acquired at 400× magnification are shown in panel (D). (E) Survival curve from in vivo orthotopic model of GBM. […] Mice were monitored for two months after U87 cells inoculation. […]"}, "HN6": {"system": "HN6", "experiment": "MTS cytotoxicity assay, HN6 cells", "format": "cell-based", "details": "HN6, 72 h", "protocol": "(§1) For CellTiter 96® Aqueous One Solution Cell Proliferation Assay (MTS) (Promega, Madison, WI, USA), cells were seeded at 5 × 10^3 per well in 96-well plates in quadruplicate together a control with no cells to evaluate the background. After 24 h, the culture medium was removed, and fresh medium containing increasing concentrations of chemical compounds was added to cells. The fixed final concentrations were 0.1 μM, 1 μM, 10 μM, and 100 μM. DMSO was the vehicle used for dilution of the compounds, and its final concentration on cells was less than 0.2%. Medium-only containing wells were included as controls. […] After 3 h at 37 °C in a humidified, 5% CO2 atmosphere, the absorbance at 492 nm was recorded using an EZREAD400 (Biochrom, Cambridge, United Kingdom) plate reader. The average 490 nm absorbance from the “no cell” control wells was subtracted from all other values to yield background-corrected absorbance. Dose–response curves and CC50 values have been calculated by plotting the absorbance data as a function of inhibitor concentrations and fitting the data by least-squares nonlinear regression, according to the method of Marquardt–Levenberg, with the computer program GraphPad Prism 6.0.\n(§2) Cells were incubated with a scalar concentration of DDX3X inhibitors, and after 72 h of treatment, cell viability was assessed by cytotoxicity assay. […]"}, "U87 cells xenograft": {"system": "U87 cells xenograft", "experiment": "Subcutaneous U87 xenograft model of GBM", "format": "in vivo, CD1 nude mice", "details": "50 mg/kg i.p.", "protocol": "Male CD1 nude mice (Charles River, Milan, Italy) were maintained under the guidelines established by our Institution (University of L’Aquila), complying with the Declaration of Helsinki, national and international laws and policies (European Economic Community Council Directive 86/609; Italian Legislative Decree 4.03.2014 n.26, Gazzetta Ufficiale della Repubblica Italiana no. 61, 4 March 2014). Before any invasive manipulation, mice were anesthetized with a mixture of ketamine (25 mg/mL)/xylazine (5 mg/mL). Tumor grafts were obtained by injecting s.c. 1 × 10^6 U87 cells in 100 µL of 12 mg/mL Matrigel (Becton Dickinson, Franklin Lakes, NJ, USA). Tumor growth was monitored daily by measuring the average tumor diameter, and mice were divided into experimental groups when the tumor reached a volume of approximately 50 mm^3. The tumor volume was calculated according to the formula 4/3πr^3, with r representing the […]. BA103 was administered i.p. in a saline solution containing 10% v/v DMSO and 10% v/v TWEEN 80. Each mouse received 50 mg/kg BA103, or vehicle, three times per week. Previous experiments with the same settings have permitted choosing the endpoint of 21 days considering the maximum mean volume of tumors in control mice that was compatible with no signs of distress. […]\nNext, we tested our compound on U87 cells in a xenograft model of GBM. […] During the experiment, tumor growth was monitored measuring tumor volume, and at the end point, 21 days after the start point, mice were euthanized, and tumors were recovered and measured. […] Tumor masses were also analyzed for the expression of DDX3X, and all xenografts resulted positive for DDX3X expression, from both control and treated groups, with a spotted staining pattern (Figure 9D).\nFigure 9 Biological activity of BA103 in xenograft models of GBM. […] Tumor growth was monitored by measuring tumor volume (B), and at the end point, tumors were weighed, and the resulting mean values for each group are reported in the histogram (C). […] Mice were monitored for two months after U87 cells inoculation."}, "DU-145": {"system": "DU-145", "experiment": "MTS cytotoxicity assay, DU-145 cells", "format": "cell-based", "details": "DU-145, 72 h", "protocol": "as §1, §2"}}, "data": [{"smiles": "CCCCc1cn(-c2ccc(NC(=O)Nc3ccccc3C(F)(F)F)cc2)nn1", "note": "[BA103, 1-(4-(4-Butyl-1H-1,2,3-triazol-1-yl)phenyl)-3-(2-(trifluoromethyl)phenyl)urea]", "values": [{"measurement": "mice alive at the endpoint", "setting": "[1]", "result": "seven out of eight"}, {"measurement": "CC50", "setting": "HN6", "result": "low micromolar range"}, {"measurement": "tumor growth (tumor volume) vs control", "setting": "U87 cells xenograft; from the second week", "result": "reduction in tumor growth was evident"}, {"measurement": "reduction of mean tumor mass with respect to control group", "setting": "U87 cells xenograft; three times per week for two weeks, end point 21 days", "result": "~60", "unit": "%"}, {"measurement": "signs of distress in the receiving animal", "setting": "U87 cells xenograft; two consecutive weeks", "result": "absence of any visible sign of distress"}, {"measurement": "CC50", "setting": "DU-145", "result": "low micromolar range"}]}]}
